{
  "source": "patent US20100274022A1",
  "about": "“G PROTEIN-COUPLED RECEPTOR INHIBITOR AND PHARMACEUTICAL PRODUCT” (PHARMAFRONTIER CO., LTD., priority 2007, published 2010)",
  "target": "T1, humanGPR120 (Homo sapiens, UniProt Q5NUL3)",
  "T1 construct": "expressed in transfected cells",
  "T1 sequence (Q5NUL3 1-377 isoform Q5NUL3-1 R67C/Q274H/I297T)": "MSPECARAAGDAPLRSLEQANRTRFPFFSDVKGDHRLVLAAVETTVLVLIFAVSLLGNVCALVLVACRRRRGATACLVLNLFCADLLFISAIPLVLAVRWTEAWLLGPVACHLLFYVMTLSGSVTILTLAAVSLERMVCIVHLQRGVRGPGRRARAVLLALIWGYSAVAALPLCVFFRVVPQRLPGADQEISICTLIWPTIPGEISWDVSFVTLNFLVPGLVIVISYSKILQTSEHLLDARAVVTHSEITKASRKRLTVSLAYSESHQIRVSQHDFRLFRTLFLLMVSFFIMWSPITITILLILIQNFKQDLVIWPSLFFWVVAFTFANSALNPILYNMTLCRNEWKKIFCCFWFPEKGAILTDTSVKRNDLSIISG",
  "test": "Inhibitory effect on activation (antagonistic activity): α-LA-stimulated increase in intracellular Ca2+ concentration measured by FLIPR in cells comprising GPR120",
  "assay_type": "cell-based",
  "data": [
    {"substance": "(E)-3-{3-[2-(2-nonylpyridinylamino)ethoxy]phenyl}acrylic acid [ATG-19]", "values": [
      {"measurement": "antagonistic activity for GPR120 (result in words)", "value": "significant antagonistic activity"}
    ]}
  ]
}
